Among the data in patent US10870647B2, “Imidazopyridine derivative, method for preparing same, and pharmaceutical composition containing same as active ingredient for preventing or treating cancer” (DAEGU-GYEONGBUK MEDICAL INNOVATION FOUNDATION, priority 2016, dated 2020) are remaining binding values, retold here.

Common to all, as to experiment: Kinase selectivity, scanMAX Kinase assay panel (DiscoverX), % control at 1 uM
Holding throughout (type): binding

Assay [1] addresses T1, scanMAX Kinase assay panel (Homo sapiens, UniProt Q16288).
T1 construct: purchased DiscoverX
Conditions: TRKC; 1 uM; read-out: Percent Control (%). An outline of the steps: (§1)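 Binding across the scanMAX kinase panel was tested at 1 uM compound. % control = (compound − positive control)/(negative control − positive control) × 100; below 35 counted as active.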

Assay [2] deals with T2, scanMAX Kinase assay panel (Homo sapiens, UniProt Q9NY57).
T2 construct: purchased DiscoverX
T2 sequence (Q9NY57 whole entry): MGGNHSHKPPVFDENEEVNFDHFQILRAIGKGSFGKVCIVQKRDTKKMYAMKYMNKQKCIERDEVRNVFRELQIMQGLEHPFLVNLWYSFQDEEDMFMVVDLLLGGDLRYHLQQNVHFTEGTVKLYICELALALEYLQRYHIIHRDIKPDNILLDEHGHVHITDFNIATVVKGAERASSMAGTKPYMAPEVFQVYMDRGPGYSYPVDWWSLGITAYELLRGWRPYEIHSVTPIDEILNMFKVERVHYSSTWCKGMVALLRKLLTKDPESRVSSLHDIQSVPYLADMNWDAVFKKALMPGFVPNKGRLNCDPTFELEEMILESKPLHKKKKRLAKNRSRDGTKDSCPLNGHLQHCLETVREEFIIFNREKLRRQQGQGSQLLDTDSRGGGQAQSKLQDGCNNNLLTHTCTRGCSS
Conditions: YANK2; 1 uM; read-out: Percent Control (%). An outline of the steps:
as §1

In assay [3] the target is T3, scanMAX Kinase assay panel (Homo sapiens, UniProt P36896).
T3 construct: purchased DiscoverX
T3 sequence (P36896 24-505): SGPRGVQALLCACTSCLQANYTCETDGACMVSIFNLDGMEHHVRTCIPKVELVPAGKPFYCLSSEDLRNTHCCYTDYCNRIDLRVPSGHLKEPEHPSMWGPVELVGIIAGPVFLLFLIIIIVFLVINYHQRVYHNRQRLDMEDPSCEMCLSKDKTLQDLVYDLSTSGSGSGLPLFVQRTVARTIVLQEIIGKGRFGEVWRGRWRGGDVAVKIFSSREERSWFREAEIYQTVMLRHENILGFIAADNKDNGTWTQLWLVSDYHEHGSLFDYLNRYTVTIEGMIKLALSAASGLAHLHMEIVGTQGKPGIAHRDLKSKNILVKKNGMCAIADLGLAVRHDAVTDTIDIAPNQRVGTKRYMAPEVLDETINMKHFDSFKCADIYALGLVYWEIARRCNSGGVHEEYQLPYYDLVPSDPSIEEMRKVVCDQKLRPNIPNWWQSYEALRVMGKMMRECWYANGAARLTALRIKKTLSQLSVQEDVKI
The settings on record: ACVR1B; 1 uM; read-out: Percent Control (%). The procedure, abridged:
as §1

For assay [4], the target named is T4, scanMAX Kinase assay panel (Homo sapiens, UniProt P36888, D835V).
T4 construct: purchased DiscoverX
T4 sequence (P36888 27-993 D835V): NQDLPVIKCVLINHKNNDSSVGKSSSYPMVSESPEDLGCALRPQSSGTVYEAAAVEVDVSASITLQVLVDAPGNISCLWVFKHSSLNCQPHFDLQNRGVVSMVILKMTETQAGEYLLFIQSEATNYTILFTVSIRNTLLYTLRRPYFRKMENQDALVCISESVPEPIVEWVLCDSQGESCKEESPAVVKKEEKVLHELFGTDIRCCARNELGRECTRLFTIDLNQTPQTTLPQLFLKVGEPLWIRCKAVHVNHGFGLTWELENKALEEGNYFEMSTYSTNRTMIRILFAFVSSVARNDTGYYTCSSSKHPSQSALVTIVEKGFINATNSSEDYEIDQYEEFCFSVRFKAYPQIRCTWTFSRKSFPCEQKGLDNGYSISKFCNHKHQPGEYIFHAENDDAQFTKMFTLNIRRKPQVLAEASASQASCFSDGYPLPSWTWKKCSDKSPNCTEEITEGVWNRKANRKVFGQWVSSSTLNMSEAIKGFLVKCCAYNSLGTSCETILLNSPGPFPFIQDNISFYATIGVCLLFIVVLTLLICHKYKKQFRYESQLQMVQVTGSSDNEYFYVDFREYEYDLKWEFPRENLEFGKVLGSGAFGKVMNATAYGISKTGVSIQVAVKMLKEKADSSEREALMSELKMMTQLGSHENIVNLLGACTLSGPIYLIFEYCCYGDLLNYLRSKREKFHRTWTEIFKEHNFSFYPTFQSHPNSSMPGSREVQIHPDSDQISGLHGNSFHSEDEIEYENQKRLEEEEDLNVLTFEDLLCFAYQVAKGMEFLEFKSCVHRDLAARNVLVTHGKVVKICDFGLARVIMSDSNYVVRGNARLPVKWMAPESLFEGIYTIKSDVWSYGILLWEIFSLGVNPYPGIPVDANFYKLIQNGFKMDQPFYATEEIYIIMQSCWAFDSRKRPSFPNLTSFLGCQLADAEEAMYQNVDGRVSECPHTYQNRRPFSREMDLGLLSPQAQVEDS
Conditions: FLT3 (D835V); 1 uM; read-out: Percent Control (%). The procedure, abridged: as §1

In assay [5] the target is T5, scanMAX Kinase assay panel (Homo sapiens, UniProt Q9P286).
T5 construct: purchased DiscoverX
T5 sequence (Q9P286 whole entry): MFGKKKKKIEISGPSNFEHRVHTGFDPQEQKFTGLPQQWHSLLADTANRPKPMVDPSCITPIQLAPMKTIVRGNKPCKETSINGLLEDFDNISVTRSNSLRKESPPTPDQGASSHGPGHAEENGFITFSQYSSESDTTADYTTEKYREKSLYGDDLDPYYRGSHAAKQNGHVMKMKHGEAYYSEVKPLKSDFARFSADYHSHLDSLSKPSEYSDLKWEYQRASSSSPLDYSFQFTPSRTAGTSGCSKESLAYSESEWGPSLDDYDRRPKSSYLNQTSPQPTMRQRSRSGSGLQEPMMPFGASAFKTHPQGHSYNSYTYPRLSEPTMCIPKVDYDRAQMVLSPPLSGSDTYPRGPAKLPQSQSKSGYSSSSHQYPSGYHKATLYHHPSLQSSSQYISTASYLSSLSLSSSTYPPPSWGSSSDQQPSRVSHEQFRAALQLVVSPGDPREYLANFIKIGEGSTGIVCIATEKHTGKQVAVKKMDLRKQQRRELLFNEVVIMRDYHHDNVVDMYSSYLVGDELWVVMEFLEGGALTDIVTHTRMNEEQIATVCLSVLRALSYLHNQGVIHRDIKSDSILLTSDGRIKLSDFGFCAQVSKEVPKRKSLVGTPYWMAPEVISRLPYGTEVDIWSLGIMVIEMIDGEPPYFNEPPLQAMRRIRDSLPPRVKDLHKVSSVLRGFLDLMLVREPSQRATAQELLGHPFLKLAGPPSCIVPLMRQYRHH
Conditions: PAK7; 1 uM; read-out: Percent Control (%). An outline of the steps: as §1

The target in assay [6] is T6, scanMAX Kinase assay panel (Homo sapiens, UniProt Q8IWQ3).
T6 construct: purchased DiscoverX
T6 sequence (Q8IWQ3 1-736): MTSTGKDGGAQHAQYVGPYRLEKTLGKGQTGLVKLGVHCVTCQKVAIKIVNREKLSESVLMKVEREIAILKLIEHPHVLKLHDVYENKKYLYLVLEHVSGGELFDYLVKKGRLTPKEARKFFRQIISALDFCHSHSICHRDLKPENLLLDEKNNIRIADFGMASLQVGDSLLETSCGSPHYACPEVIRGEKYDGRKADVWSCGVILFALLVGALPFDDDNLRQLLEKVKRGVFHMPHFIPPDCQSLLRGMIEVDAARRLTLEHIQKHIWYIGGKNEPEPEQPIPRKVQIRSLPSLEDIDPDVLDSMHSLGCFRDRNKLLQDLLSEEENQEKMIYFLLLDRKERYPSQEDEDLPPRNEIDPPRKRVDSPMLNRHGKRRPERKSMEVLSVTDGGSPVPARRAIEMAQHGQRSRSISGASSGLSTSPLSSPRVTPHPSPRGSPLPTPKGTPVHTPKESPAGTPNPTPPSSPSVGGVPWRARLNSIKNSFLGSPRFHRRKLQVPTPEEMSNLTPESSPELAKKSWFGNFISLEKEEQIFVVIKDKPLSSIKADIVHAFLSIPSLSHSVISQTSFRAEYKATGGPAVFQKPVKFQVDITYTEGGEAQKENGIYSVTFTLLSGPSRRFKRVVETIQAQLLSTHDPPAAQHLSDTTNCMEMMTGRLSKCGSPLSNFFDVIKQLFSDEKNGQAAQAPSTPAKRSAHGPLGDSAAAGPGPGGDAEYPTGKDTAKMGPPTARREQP
Conditions: BRSK2; 1 uM; read-out: Percent Control (%). An outline of the steps:
as §1

The target in assay [7] is T7, scanMAX Kinase assay panel (Homo sapiens, UniProt Q14289).
T7 construct: purchased DiscoverX
T7 sequence (Q14289 whole entry): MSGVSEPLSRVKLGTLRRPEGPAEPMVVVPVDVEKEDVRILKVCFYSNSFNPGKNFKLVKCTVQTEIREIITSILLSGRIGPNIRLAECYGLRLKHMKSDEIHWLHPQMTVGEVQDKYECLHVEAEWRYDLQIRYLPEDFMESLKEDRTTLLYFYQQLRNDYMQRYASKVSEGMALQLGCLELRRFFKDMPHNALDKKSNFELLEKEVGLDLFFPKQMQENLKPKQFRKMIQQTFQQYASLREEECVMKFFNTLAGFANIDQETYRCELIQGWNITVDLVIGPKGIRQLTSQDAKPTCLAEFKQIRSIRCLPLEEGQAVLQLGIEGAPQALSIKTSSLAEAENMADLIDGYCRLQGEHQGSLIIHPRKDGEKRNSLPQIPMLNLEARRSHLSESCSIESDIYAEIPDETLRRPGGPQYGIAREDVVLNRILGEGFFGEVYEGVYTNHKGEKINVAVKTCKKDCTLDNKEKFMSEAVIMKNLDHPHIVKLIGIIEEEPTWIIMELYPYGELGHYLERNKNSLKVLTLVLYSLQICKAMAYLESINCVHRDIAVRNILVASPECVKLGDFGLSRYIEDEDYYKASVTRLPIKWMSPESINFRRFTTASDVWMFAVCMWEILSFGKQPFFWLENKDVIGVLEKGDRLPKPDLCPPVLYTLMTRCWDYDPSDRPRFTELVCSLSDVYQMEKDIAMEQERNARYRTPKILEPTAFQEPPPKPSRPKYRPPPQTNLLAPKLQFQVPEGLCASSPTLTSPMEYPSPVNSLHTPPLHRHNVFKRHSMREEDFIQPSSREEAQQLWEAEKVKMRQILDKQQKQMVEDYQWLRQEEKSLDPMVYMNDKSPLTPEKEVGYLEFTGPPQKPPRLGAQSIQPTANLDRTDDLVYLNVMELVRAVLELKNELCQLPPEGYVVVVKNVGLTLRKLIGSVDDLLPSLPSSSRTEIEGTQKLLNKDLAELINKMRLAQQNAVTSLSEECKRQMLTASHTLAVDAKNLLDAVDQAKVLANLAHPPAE
The settings on record: PYK2; 1 uM; read-out: Percent Control (%). An outline of the steps:
as §1

The target of assay [8] is T8, scanMAX Kinase assay panel (Homo sapiens, UniProt Q9UEW8).
T8 construct: purchased DiscoverX
Conditions: STK39; 1 uM; read-out: Percent Control (%). An outline of the steps:
as §1

T1 sequence (Q16288 32-839): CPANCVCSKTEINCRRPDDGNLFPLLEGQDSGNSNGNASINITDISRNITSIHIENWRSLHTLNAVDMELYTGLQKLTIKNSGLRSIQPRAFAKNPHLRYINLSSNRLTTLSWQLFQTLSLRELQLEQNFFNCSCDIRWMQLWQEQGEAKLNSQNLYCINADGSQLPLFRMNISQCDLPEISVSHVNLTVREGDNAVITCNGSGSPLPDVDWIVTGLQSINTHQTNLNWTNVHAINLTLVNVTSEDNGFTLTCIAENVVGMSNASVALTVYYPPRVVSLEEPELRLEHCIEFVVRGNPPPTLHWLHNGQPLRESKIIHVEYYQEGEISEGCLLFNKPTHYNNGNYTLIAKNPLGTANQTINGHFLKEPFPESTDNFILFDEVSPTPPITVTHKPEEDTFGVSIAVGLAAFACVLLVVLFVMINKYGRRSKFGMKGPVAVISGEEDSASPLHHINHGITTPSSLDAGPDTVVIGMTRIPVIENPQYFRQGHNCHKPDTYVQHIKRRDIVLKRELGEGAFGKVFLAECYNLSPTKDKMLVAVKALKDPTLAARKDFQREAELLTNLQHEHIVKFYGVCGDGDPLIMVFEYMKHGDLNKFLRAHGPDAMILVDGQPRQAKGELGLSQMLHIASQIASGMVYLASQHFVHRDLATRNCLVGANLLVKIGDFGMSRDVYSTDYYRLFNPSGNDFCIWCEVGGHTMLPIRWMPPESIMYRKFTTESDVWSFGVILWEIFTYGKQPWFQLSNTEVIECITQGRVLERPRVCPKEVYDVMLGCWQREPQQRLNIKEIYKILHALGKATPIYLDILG

Consider `Cc1ccc(C(=O)Nc2ccc(CN3CCN(C)CC3)c(C(F)(F)F)c2)cc1C#Cc1cnc2c(Nc3cnn(C)c3)cccn12` [Example 1, 4-methyl-3-((8-((1-methyl-1H-pyrazol-4-yl)amino)imidazo[1,2-a]pyridin-3-yl)ethynyl)-N-(4-((4-methylpiperazin-1-yl)methyl)-3-(trifluoromethyl)phenyl)benzamide], for which the remaining binding at 1 µM in assay [1] came out at 0%; in assay [2], 100%; in assay [3], 89%; in assay [4] it was 0%; in assay [5], 100%; in assay [6], 96%. Further, the remaining binding at 1 µM in assay [7] was determined as 4%; in assay [8] it was 97%.
Regarding `Cc1cn(-c2cc(NC(=O)c3ccc(C)c(C#Cc4cnc5c(Nc6cnn(C)c6)cccn45)c3)cc(C(F)(F)F)c2)cn1` [Example 12, 4-methyl-N-(3-(4-methyl-1H-imidazol-1-yl)-5-(trifluoromethyl)phenyl)-3-((8-((1-methyl-1H-pyrazol-4-yl)amino)imidazo[1,2-a]pyridin-3-yl)ethynyl)benzamide], the remaining binding at 1 µM worked out at 3% in assay [1]; 99% in assay [2]; 94% in assay [3]; 27% in assay [4]; 100% in assay [5]; 87% in assay [6]. Further, the results for the remaining binding at 1 µM in assay [7] and in assay [8] were 29% and 87%, respectively.
For `Cc1ccc(NC(=O)C2(C(=O)Nc3ccc(F)cc3)CC2)cc1C#Cc1cnc2c(Nc3cnn(C(C)C)c3)cccn12` [Example 78], the remaining binding at 1 µM in assay [1] came to 96%; in assay [2], 100%; in assay [3], 100%; in assay [4] it was 87%; in assay [5], 100%; in assay [6] it was 100%. Further, the remaining binding at 1 µM turned out to be 100% in assay [7] and 89% in assay [8].
